The text below walks through data of paper PMC11599599, “Synthesis, characterization, molecular docking, pharmacokinetics, and molecular dynamics of new bis-thiazoles based on bis-thiosemicarbazone as anti-coxsackievirus” (Scientific Reports, 2024).

The subject of one series is Vero cells. In words: Cytotoxicity assay on Vero cells (microscopic morphology). The series is classed as cell-based. Details: key to Cytotoxicity on Vero cells (cell sheet affected): -: Safe concentration; + 1, +2, + 3, +4: about 25, 50, 75, 100% of cell sheet was affected respectively; + 1, +2, + 3, +4: about 25, 50, 75, 100% of cell sheet was affected respectively; + 1, +2, + 3, +4: about 25, 50, 75, 100% of cell sheet was affected respectively; + 1, +2, + 3, +4: about 25, 50, 75, 100% of cell sheet was affected respectively; M: masked (color of compounds made cells unseen). Conditions: for Cytotoxicity on Vero cells (cell sheet affected): 24 h, morphological changes; for Safety effect on Vero cells (in words): Table 1, 24 h. As to the method: (§1) Compounds: 10 mg were dissolved in 1 mL (10% DMSO and 90% deionized water), sterilized by 1% antibiotic–antimycotic mixture and stored in −20.
(§2) Cells: Vero cell line was used. The cells were propagated in DMEM medium (Lonza, USA) supplemented with 10% fetal bovine serum (Gibco, USA), 1% antibiotic–antimycotic mixture (Lonza, USA).
Cytotoxic effect of compounds was measured by inoculation different doses of compounds on tested cells then examining them microscopically after 24 h to determine any morphological changes that appeared on cells as a result of being subjected to the compounds[46]. Vero cells were seeded onto 96-well plates, which were then incubated for the whole night. After a 24-hour incubation period at 37 °C in a humidified incubator with 5% CO2, compounds were injected at concentrations of 10, 20, 30, 40, 50, 60, 70, 80, 90, and 100 µg /100 µl. Any morphological changes were monitored under a microscope.

In a further series the test system is Cox B virus. The series can be described thus: Plaque reduction assay against Cox B virus. It counts as cell-based. The settings on record: for inhibition at 20 µg/mL / inhibition at 40 µg/mL: Vero. The protocol:
as §1, §2
Virus: Cox B virus was propagated and titrated to give final count of 0.9 × 10^5 viral particle/mL.
This test was done according to Tebas et al.[47], In a 12-well plate Vero cells (10^5 cells/mL) were cultivated for 1 day at 37 °C. The Cox B virus was mixed with the safe concentration of the compound and incubated for 1 h at 37 °C before being added to the cells. Following the removal of the growth media, the cells were injected with virus-extract combinations ([…]) and then rinsed with PBS (Phosphate Buffer Saline). Following a one-hour contact period for virus adsorption, the cell monolayer was supplemented with one milliliter of Dulbecco’s Modified Eagles Media (DMEM) containing 2% agarose. The plates were then allowed to solidify and incubated at 37 °C until the development of viral plaques. Formalin (10%) was added for 2 h then plates were stained with crystal violet. Control wells were included where untreated virus was incubated with Vero cells and finally plaques were counted and percentage reduction in plaques formation in comparison to control wells was recorded as following:
% inhibition = (viral count(untreated) - viral count(treated))/viral count(untreated)X100.
(Plaque reduction counts the foci of infection that form in a cell layer.)

Usually melting point stands for the temperature, or range, at which the solid turns liquid. Usually inhibition stands for the percentage by which the read-out fell short of the control. As to `COc1ccc(OC)c(C=C2C(=NNC(N)=S)c3ccccc3C2=NNC(N)=S)c1` [compound 3, 2,2’-((1E,3Z)−2-((E)−2,5-dimethoxybenzylidene)−1H-indene-1,3(2H)-diylidene)bis-(hydrazine-1-carbothioamide)], the melting point lay within 231 to 233 °C. Besides, in the series with Vero cells (10 µg/100µl), the “Cytotoxicity on Vero cells (cell sheet affected)” value (“Cytotoxicity on Vero cells” below) is given as “-”. Besides, the “Cytotoxicity on Vero cells” value in the series on Vero cells (20 µg/100µl) is listed as “-”. Further, in the series on Vero cells (30 µg/100µl), the “Cytotoxicity on Vero cells” value was “-”. Also, the “Cytotoxicity on Vero cells” value with Vero cells (40 µg/100µl) is “-”. Besides, in the series on Vero cells (50 µg/100µl), the “Cytotoxicity on Vero cells” value was “-”. The “Cytotoxicity on Vero cells” value with Vero cells (60 µg/100µl) is listed as “-”. Further, the “Cytotoxicity on Vero cells” value in the series with Vero cells (70 µg/100µl) was “-”. Also, in the series with Vero cells (80 µg/100µl), the “Cytotoxicity on Vero cells” value is “-”. Further, in the series on Vero cells (90 µg/100µl), the “Cytotoxicity on Vero cells” value is “-”. For the same compound, the “Cytotoxicity on Vero cells” value with Vero cells (100 µg/100µl) is given as “-”. Also, the “Safety effect on Vero cells (in words)” value with Vero cells is on record as “higher safety”. Besides, the “Viral count (treated)” value in the series with Cox B virus (20 ug/mL) was 1.24 × 10^7. Also, the “Viral count (treated)” value in the series with Cox B virus (40 ug/mL) is given as 0.72 × 10^7. Besides, in the series with Cox B virus, the inhibition at 20 µg/mL was found to be 22% and the inhibition at 40 µg/mL came to 55%.
The compound `COc1ccc(OC)c(C=C2/C(=N/Nc3nc(C)c(/N=N/c4ccc([N+](=O)[O-])cc4)s3)c3ccccc3/C2=N\Nc2nc(C)c(/N=N/c3ccc([N+](=O)[O-])cc3)s2)c1` [7d, 2,2’-(((1E,3E)−2-(2,5-dimethoxybenzylidene)−1H-indene-1,3(2H)-diylidene)bis(hydrazin-1-yl-2-ylidene))bis(4-methyl-5-((E)-(4-nitrophenyl)diazenyl)thiazole)] displayed a melting point of 181 to 183 °C. Also, the “Cytotoxicity on Vero cells” value in the series with Vero cells (10 µg/100µl) was “-”. Further, in the series on Vero cells (20 µg/100µl), the “Cytotoxicity on Vero cells” value is on record as “-”. Also, the “Cytotoxicity on Vero cells” value in the series with Vero cells (30 µg/100µl) is listed as “-”. In addition, the “Cytotoxicity on Vero cells” value with Vero cells (40 µg/100µl) was “-”. For the same compound, in the series with Vero cells (50 µg/100µl), the “Cytotoxicity on Vero cells” value is “-”. Also, the “Cytotoxicity on Vero cells” value in the series on Vero cells (60 µg/100µl) is recorded as “-”. In the series with Vero cells (70 µg/100µl), the “Cytotoxicity on Vero cells” value is on record as “-”. In addition, in the series on Vero cells (80 µg/100µl), the “Cytotoxicity on Vero cells” value is “-”. Further, the “Cytotoxicity on Vero cells” value in the series on Vero cells (90 µg/100µl) is “-”. Besides, the “Cytotoxicity on Vero cells” value with Vero cells (100 µg/100µl) is “-”. Besides, the “Safety effect on Vero cells (in words)” value in the series on Vero cells is recorded as “higher safety”. The “Viral count (treated)” value with Cox B virus (20 ug/mL) was 1.6 × 10^7. For the same compound, the “Viral count (treated)” value with Cox B virus (40 ug/mL) is 0.54 × 10^7. In the series on Cox B virus, the inhibition at 20 µg/mL was determined as 0% and the inhibition at 40 µg/mL was 66%.
In turn, `COc1ccc(OC)c(C=C2/C(=N/NC3=NC(=O)CS3)c3ccccc3/C2=N\NC2=NC(=O)CS2)c1` [9a, 2,2’-(((1E,3E)−2-(2,5-dimethoxybenzylidene)−1H-indene-1,3(2H)-diylidene)bis(hydrazin-1-yl-2-ylidene))bis(thiazol-4(5H)-one)] had a melting point of 130 to 132 °C. Moreover, the “Cytotoxicity on Vero cells” value in the series on Vero cells (10 µg/100µl) is on record as “-”. For the same compound, the “Cytotoxicity on Vero cells” value in the series with Vero cells (20 µg/100µl) is on record as “-”. Besides, the “Cytotoxicity on Vero cells” value with Vero cells (30 µg/100µl) is on record as “-”. For the same compound, in the series with Vero cells (40 µg/100µl), the “Cytotoxicity on Vero cells” value was “-”. Besides, the “Cytotoxicity on Vero cells” value in the series on Vero cells (50 µg/100µl) is “-”. Further, the “Cytotoxicity on Vero cells” value in the series on Vero cells (60 µg/100µl) is given as “-”. Moreover, in the series with Vero cells, the “Safety effect on Vero cells (in words)” value was “highly toxic at low concentration”. For the same compound, the “Viral count (treated)” value with Cox B virus (20 ug/mL) is recorded as 1.6 × 10^7. Besides, in the series with Cox B virus (40 ug/mL), the “Viral count (treated)” value is 1.6 × 10^7. For the same compound, in the series with Cox B virus, the inhibition at 20 µg/mL worked out at 0% and the inhibition at 40 µg/mL worked out at 0%.
`COc1ccc(OC)c(C=C2/C(=N/Nc3nc(C)c(/N=N/c4ccc(C)cc4)s3)c3ccccc3/C2=N\Nc2nc(C)c(/N=N/c3ccc(C)cc3)s2)c1` [7b, 2,2’-(((1E,3E)−2-(2,5-dimethoxybenzylidene)−1H-indene-1,3(2H)-diylidene)bis(hydrazin-1-yl-2-ylidene))bis(4-methyl-5-((E)-p-tolyldiazenyl)thiazole)] displayed a melting point of 132 to 135 °C. For the same compound, the “Cytotoxicity on Vero cells” value with Vero cells (10 µg/100µl) is “-”. Besides, the “Cytotoxicity on Vero cells” value in the series on Vero cells (20 µg/100µl) is on record as “-”. Also, the “Cytotoxicity on Vero cells” value with Vero cells (30 µg/100µl) is given as “-”. For the same compound, in the series with Vero cells (40 µg/100µl), the “Cytotoxicity on Vero cells” value is listed as “-”. Moreover, in the series with Vero cells (50 µg/100µl), the “Cytotoxicity on Vero cells” value was “-”. The “Cytotoxicity on Vero cells” value with Vero cells (60 µg/100µl) is on record as “M”. For the same compound, the “Cytotoxicity on Vero cells” value in the series on Vero cells (70 µg/100µl) was “M”. The “Cytotoxicity on Vero cells” value in the series with Vero cells (80 µg/100µl) is “M”. In addition, the “Cytotoxicity on Vero cells” value in the series with Vero cells (90 µg/100µl) was “M”. Further, the “Cytotoxicity on Vero cells” value with Vero cells (100 µg/100µl) was “M”. Besides, the “Safety effect on Vero cells (in words)” value with Vero cells was “dense and coloured that made masking to the cell sheet”. Besides, in the series with Cox B virus (20 ug/mL), the “Viral count (treated)” value is listed as 1.6 × 10^7. The “Viral count (treated)” value in the series on Cox B virus (40 ug/mL) is 1.07 × 10^7. In the series on Cox B virus, the inhibition at 20 µg/mL is 0% and the inhibition at 40 µg/mL was 33%.
